According to the NIST ThermoML archive (doi:10.1016/j.fluid.2009.07.010):

Columns and labels:
[1] = for mass density: 298.1 K, 101.33 kPa, Liquid, Vibrating tube method; for surface tension liquid-gas: 298.15 K, Drop volume
[2] = xn = mol fraction of the nth substance listed; details: 298.15 K; for surface tension liquid-gas: Drop volume; for mass density: 101 kPa, Liquid, Vibrating tube method

CCCCn1cc[n+](C)c1.F[B-](F)(F)F [1-butyl-3-methylimidazolium tetrafluoroborate]
[1]
Details | mass density [kg/m3] | surface tension liquid-gas [mN/m]
– | 1201.2 | 45.33

CCCCn1cc[n+](C)c1.F[B-](F)(F)F [1-butyl-3-methylimidazolium tetrafluoroborate] + CCO
[2]
Details | mass density [kg/m3] | surface tension liquid-gas [mN/m]
x1 = 0.0986 | 897.2 | 22.83
x1 = 0.2002 | 977.4 | 23.28
x1 = 0.2553 | 1010.7 | 24.65
x1 = 0.2881 | 1027.9 | –
x1 = 0.3284 | 1046.8 | 25.53
x1 = 0.3999 | 1075.5 | 26.55
x1 = 0.4202 | 1082.7 | 27.2
x1 = 0.5024 | 1108.6 | 28.87
x1 = 0.6082 | 1135.9 | 31.32
x1 = 0.7107 | 1157.4 | 34.9
x1 = 0.804 | 1173.7 | 37.99
x1 = 0.9059 | 1188.8 | 41.54
x1 = 1 | 1201.2 | 45.33

CCCCn1cc[n+](C)c1.F[B-](F)(F)F [1-butyl-3-methylimidazolium tetrafluoroborate] + O
[2]
Details | mass density [kg/m3] | surface tension liquid-gas [mN/m]
x1 = 0.0001 | – | 61.54
x1 = 0.0003 | – | 61.5
x1 = 0.0017 | 1000.9 | –
x1 = 0.0035 | 1004.8 | –
x1 = 0.0039 | – | 57.3
x1 = 0.0052 | 1008.5 | –
x1 = 0.0058 | – | 54.34
x1 = 0.0069 | 1011.9 | –
x1 = 0.0074 | – | 51.77
x1 = 0.0092 | 1014.4 | –
x1 = 0.0094 | – | 50.63
x1 = 0.0197 | 1030.6 | –
x1 = 0.02 | – | 46.93
x1 = 0.0335 | 1048.2 | –
x1 = 0.0404 | – | 46.02
x1 = 0.0498 | – | 46.27
x1 = 0.0502 | 1065.2 | –
x1 = 0.0586 | – | 46.25
x1 = 0.0698 | – | 46.14
x1 = 0.0736 | 1084.1 | –
x1 = 0.0799 | – | 45.99
x1 = 0.0998 | – | 46.19
x1 = 0.1013 | – | 45.63
x1 = 0.1072 | 1103.9 | –
x1 = 0.1081 | – | 46.23
x1 = 0.139 | – | 46.22
x1 = 0.1398 | 1118 | –
x1 = 0.1621 | – | 46.16
x1 = 0.1688 | 1128 | –
x1 = 0.1788 | – | 46.06
x1 = 0.1818 | – | 45.91
x1 = 0.2128 | – | 45.62
x1 = 0.252 | 1148.2 | –
x1 = 0.2963 | 1156.2 | 46.25
x1 = 0.3734 | 1166.9 | –
x1 = 0.4067 | 1169.4 | 46.32
x1 = 0.4408 | 1171.9 | –
x1 = 0.4946 | 1177.9 | –
x1 = 0.5252 | 1178.7 | –
x1 = 0.5304 | 1181.5 | 46.02
x1 = 0.5723 | 1181.8 | –
x1 = 0.6 | 1185 | –
x1 = 0.6326 | 1187.9 | 45.81
x1 = 0.6922 | 1189.4 | –
x1 = 0.7065 | 1191.1 | 45.68
x1 = 0.8003 | – | 45.52
x1 = 0.8167 | 1193.7 | –
x1 = 0.9005 | 1197.8 | 45.41
x1 = 1 | 1201.2 | 45.33

CCn1cc[n+](C)c1.F[B-](F)(F)F [1-ethyl-3-methylimidazolium tetrafluoroborate]
[1]
Details | mass density [kg/m3] | surface tension liquid-gas [mN/m]
– | 1279.9 | 52.81

CCn1cc[n+](C)c1.F[B-](F)(F)F [1-ethyl-3-methylimidazolium tetrafluoroborate] + CCO
[2]
Details | mass density [kg/m3] | surface tension liquid-gas [mN/m]
x1 = 0.6087 | 1190.3 | 33.58
x1 = 0.7056 | 1225.5 | 37.37
x1 = 0.8072 | 1241.6 | 42.77
x1 = 0.9054 | 1262.6 | 47.41
x1 = 1 | 1279.9 | 53.04
